47 compounds from the Deep4Chem optical property database can be followed below.

The data set can be described thus: solvent given as SMILES.

Turning to `Cc1c2oc3c(C)c(N)cc(C(=O)NC4OC(=O)C(C(C)C)N(C)C(=O)CN(C)C(=O)C5CCCN5C(=O)C(C(C)C)NC4=O)c3nc-2c(C(=O)NC2OC(=O)C(C(C)C)N(C)C(=O)CN(C)C(=O)C3CCCN3C(=O)C(C(C)C)NC2=O)c(N)c1=O` (centres undefined), the absorption maximum runs as follows: (in C1CCOC1) 524.93 nm; (in CC#N) 516.03 nm; (in CC(=O)O) 521 nm; (in CC(C)=O) 522.69 nm; (in CCCCO) 532.67 nm; (in CCCCOC(C)=O) 524.07 nm. Also, the absorption maximum by setting is: (in CCCO) 533.23 nm; (in CCN(CC)CC) 534.89 nm; (in CCO) 531.93 nm; (in CCOC(C)=O) 522.62 nm; (in CN(C)C=O) 535.18 nm; (in CO) 529.7 nm. Besides, the absorption maximum reads like this: (in CS(C)=O) 540.29 nm; (in Cc1ccccc1) 528.44 nm; (in ClC(Cl)Cl) 520.12 nm; (in ClCCCl) 517.19 nm; (in O) 514.17 nm; (in O=[N+]([O-])c1ccccc1) 534 nm. In addition, the absorption maximum is recorded as 522.11 nm (in c1ccccc1) and 541.16 nm (in c1ccncc1).
For `Cc1cc(=O)oc2cc3c4ccc(C(C)(C)C)cc4c4cc(C(C)(C)C)ccc4c3cc12`, where the note is “in ClC(Cl)Cl”, the absorption maximum was found to be 385 nm.
Turning to `CCOC(=O)c1c(-c2cc3ccccc3oc2=O)nn(-c2cccc(F)c2)c1C(=O)OCC`, the absorption maximum (in ClCCl) was found to be 324 nm.
`Cc1ccc(-c2cnc3nn4ccccc4c3c2)cc1` had an absorption maximum (in C1CCOC1) of 386 nm.
Turning to `Cc1cc(C)c(B(c2ccc(-c3ccc(-c4nc5c6ccccc6c6ccccc6c5[nH]4)cc3)cc2)c2c(C)cc(C)cc2C)c(C)c1`, the absorption maximum is listed as 375 nm (in C1CCOC1); 373 nm (in CC(C)=O); 378 nm (in CS(C)=O); 374 nm (in Cc1ccccc1); 371 nm (in ClCCl).
With `CC(C)(C)c1ccc2c(c1)c1cc(C(C)(C)C)ccc1n2-c1ccc(C(=C(C#N)C#N)c2ccc(-n3c4ccc(C(C)(C)C)cc4c4cc(C(C)(C)C)ccc43)cc2)cc1`, the absorption maximum (in Cc1ccccc1) was found to be 438 nm.
Compound `Cc1ccc(C2=C3C=CC(Oc4ccccc4)=[N+]3[B-](F)(F)n3c(Oc4ccccc4)ccc32)cc1` had an absorption maximum (in C1CCOC1) of 516 nm.
Consider `O=C(NCc1cc(=O)oc2cc(O)c(Br)cc12)c1cccnc1`, for which the absorption maximum is, setting by setting: (in CC#N) 392 nm; (in CO) 372 nm; (in CS(C)=O) 408 nm; (in O) 330 nm.
In turn, `CC(C)(C)[Si](C)(C)C#CC1=CC2=c3cc(C#C[Si](C)(C)C(C)(C)C)c4nc(C(F)(F)C(F)(F)C(F)(F)F)nc5c(C#C[Si](C)(C)C(C)(C)C)cc(c3c54)C3=CC(C#C[Si](C)(C)C(C)(C)C)=C4N=C(C(F)(F)C(F)(F)C(F)(F)F)N=C1C4C32` (centres undefined) returned an absorption maximum (in C1CCOC1) of 513 nm.
Turning to `CCCCCCCCc1ccc(-n2c3c(c4c2c2c(n4-c4ccc(CCCCCCCC)cc4)-c4ccccc4NB2c2ccccc2)B(c2ccccc2)Nc2ccccc2-3)cc1`, the absorption maximum (in Cc1ccccc1) worked out at 387 nm.
`N#Cc1ccc(/C=C/C(F)(F)F)c(N)c1`: the absorption maximum (in C1CCOC1) is listed as 367 nm.
`c1ccc(-n2c3ccccc3c3cc(-c4ccn5nc(-c6ccc(-n7c8ccccc8c8ccccc87)cc6)nc5c4)ccc32)cc1`: the absorption maximum (in C1CCOC1) came to 341 nm.
As for `CCN(CC)c1ccc(-c2nc3cc(C(NC(=O)OC(C)(C)C)C(=O)OC)ccc3o2)c(O)c1` (centres undefined), the absorption maximum is 364 nm (in CC1CCCCC1), 364 nm (in CC#N) and 364 nm (in CO).
Compound `COc1cccc(-c2[nH]c(=O)n3c2-c2ccccc2C3=O)c1O` displayed an absorption maximum (in CC#N) of 393 nm, an absorption maximum (in CO) of 395 nm and an absorption maximum (in ClCCl) of 396 nm.
Turning to `C[Si]1(c2ccccc2)C(c2ccc3c4ccccc4n(-c4ccccc4)c3c2)=C(c2ccccc2)C(c2ccccc2)=C1c1ccc2c3ccccc3n(-c3ccccc3)c2c1`, the absorption maximum (in C1CCOC1) worked out at 398 nm.
Regarding `CCCCCCCC1=C(C)C(=O)n2c1cc1[nH]c(C(=O)OC)c(C)c1c2=O`, the absorption maximum (in C1CCCCC1) is on record as 393 nm; the absorption maximum (in CO) amounted to 397 nm; the absorption maximum (in CS(C)=O) was determined as 397 nm; the absorption maximum (in ClC(Cl)Cl) was found to be 396 nm; the absorption maximum (in c1ccccc1) was determined as 395 nm.
Turning to `Cc1csc(C)c1C1=C(c2c(C)sc(-c3ccc(-c4nc(-c5ccccc5)c(-c5ccccc5)[nH]4)cc3)c2C)C(F)(F)C(F)(F)C1(F)F`, where the note is “in C1CCOC1”, the absorption maximum is given as 339 nm.
For `CCC1(CC)c2cc(-c3ccc(C(C)(C)C)cc3)ccc2-c2ccc(-c3ccc4c(c3)C(CC)(CC)c3cc(-c5ccc6c(c5)C(CC)(CC)c5cc(-c7ccc(C(C)(C)C)cc7)ccc5-6)ccc3-4)cc21`, the absorption maximum (in CO) is recorded as 360.54 nm.
Consider `CCCCCCc1ccc(-n2c3[n+](c4c5ccccc5c5ccccc5c42)[B-](C)(C)c2ccc4ccccc4c2-3)cc1`, for which the absorption maximum runs as follows: (in C1CCOC1) 392 nm; (in CC#N) 385 nm; (in Cc1ccccc1) 393 nm; (in ClCCl) 390 nm.
For `O=[N+]([O-])c1ccc(C#Cc2ccccc2C#Cc2ccc([N+](=O)[O-])cc2)cc1`, the absorption maximum (in CC#N) was 350 nm.
Turning to `c1ccc2c(c1)Sc1ccccc1N2c1ccc2c(c1)C1(c3ccccc3-c3ccccc31)c1cc(N3c4ccccc4Sc4ccccc43)ccc1-2`, the absorption maximum (in Cc1ccccc1) is 309 nm.
`Cn1nc(-c2ccc(C(F)(F)F)cc2)cc1-c1ccccc1`: the absorption maximum (in ClCCl) worked out at 260 nm.
As for `O=Cc1ccc2nc(C#Cc3ccc(N(c4ccccc4)c4ccccc4)cc3)sc2c1`, for the setting “in Cc1ccccc1”, the absorption maximum was 411 nm.
For `F[B-]1(F)n2c(cc3c4ccccc4c4ccccc4c32)-c2ccc3ccccc3[n+]21`, the absorption maximum (in ClCCl) is given as 476 nm.
Compound `N#C/C(=C\c1ccc(-c2ccncc2)cc1)c1ccc(-c2ccncc2)cc1` gave an absorption maximum (in ClCCl) of 356 nm.
`c1ccc(-c2ccc(-c3ccc(-n4c5ccccc5c5ccccc54)cc3)c3nsnc23)cc1`: the absorption maximum runs as follows: (in C1CCOC1) 394 nm; (in CC(C)=O) 382 nm; (in CCCCCC) 394 nm; (in CCOCC) 392 nm.
As for `Cc1cc(-c2ccccc2)nc2c1ccc1nc(-c3ccccc3)cn12`, the absorption maximum is, setting by setting: (in CC#N) 347 nm; (in CCCCOC(C)=O) 350 nm; (in CCOC(C)=O) 352 nm; (in CO) 345 nm; (in ClC(Cl)Cl) 350 nm; (in ClCCl) 348 nm. The absorption maximum (in c1ccccc1) is 351 nm.
Regarding `CC1(C)c2ccccc2N(c2ccccc2)c2ccc(C(=O)c3ccc4c(c3)C(C)(C)c3ccccc3N4c3ccccc3)cc21`, the absorption maximum (in Cc1ccccc1) came to 371.57 nm.
Turning to `C=CB1C=Cc2ccc3ccccc3c2N1`, the absorption maximum (in C1CCCCC1) is 355 nm.
`c1ccc2c(-n3c(-c4ccc(-c5ccc(-c6nc7c8ccccc8c8ccccc8c7n6-c6cccc7ccccc67)c6ccccc56)c5ccccc45)nc4c5ccccc5c5ccccc5c43)cccc2c1`: for the setting “in ClCCl”, the absorption maximum was determined as 334 nm.
Compound `CCCN1c2ccccc2Sc2cc(/C=C\c3cc(=O)oc4cc(NC(=O)OCC)ccc34)ccc21` had an absorption maximum (in ClC(Cl)Cl) of 422 nm.
As for `CCn1c2ccccc2c2cc(-c3cc(-c4ccc5c(c4)c4ccccc4n5CC)nc(OC)n3)ccc21`, the absorption maximum reads like this: (in C1CCOC1) 366 nm; (in CCOC(C)=O) 364 nm; (in CN(C)C=O) 369 nm; (in Cc1ccccc1) 365 nm; (in ClCCl) 366 nm.
For `CCN(CC)c1ccc2cc(C#N)/c(=N\C(=O)c3ccco3)oc2c1`, the absorption maximum is, setting by setting: (in CCO) 424 nm; (in ClCCl) 430 nm.
Turning to `Cc1c(C)n2c(COC(=O)c3ccccc3I)c(C)c(=O)n2c1=O`, for the setting “in CCO”, the absorption maximum is listed as 377 nm.
Turning to `CCCCCCCCCCOc1ccc2c3c(oc2c1)C1=C2C(=O)N4C=Cc5c(oc6cc(OCCCCCCCCCC)ccc56)C4=C2C(=O)N1C=C3`, the absorption maximum reads like this: (in CN(C)C=O) 648 nm; (in ClC(Cl)Cl) 648 nm.
For `CCN(CC)c1ccc2cc(C#N)c(=N)oc2c1`, the absorption maximum (in ClCCl) is recorded as 428 nm.
Under “in C1CCCCC1”, `COc1ccc2c3c(c4ccc(OC)cc4c2c1)C(C)(C)c1ccccc1-3` registered an absorption maximum of 388 nm.
Regarding `O=S1(=O)c2ccc(-c3ccc(-n4c5ccccc5c5ccccc54)cc3)cc2C2(c3ccccc3-c3ccccc32)c2cc(-c3ccc(-n4c5ccccc5c5ccccc54)cc3)ccc21`, where the note is “in ClCCl”, the absorption maximum was 341 nm.
In turn, `CC(C)(C)c1ccc2c(c1)c1cc(C(C)(C)C)ccc1n2-c1ccc(-c2cccs2)s1` gave an absorption maximum (in ClCCl) of 340 nm.
Still for that read-out and setting: as for `COc1ccc(C2=C(c3ccc(OC)cc3)c3cccc4c3c(cc3nc5ccccc5nc34)O2)cc1`, the figure is 500 nm.
In the case of `CC(C)(C)c1ccc2c(c1)c1cc(C(C)(C)C)ccc1n2-c1cc(C(=O)c2ccncc2)cc(-n2c3ccc(C(C)(C)C)cc3c3cc(C(C)(C)C)ccc32)c1`, the absorption maximum (in Cc1ccccc1) worked out at 396 nm.
For the compound `O=P1(c2ccccc2)C(c2ccc(N(c3ccccc3)c3ccccc3)cc2)=Cc2cc3ccccc3cc21` (centres undefined), the absorption maximum is, setting by setting: (in C1CCOC1) 407 nm; (in CC#N) 404 nm; (in CN(C)C=O) 407 nm; (in Cc1ccccc1) 412 nm; (in ClC(Cl)Cl) 417 nm; (in ClCCl) 414 nm.
As for `O=C1NC(c2ccccc2)=N/C1=C\c1ccccc1`, the absorption maximum (in C1COCCO1) is recorded as 384 nm.
Where the note is “in O”, `O=C(O)CCCCCNC(=O)c1cccc2c(=O)c3ccccc3[nH]c12` yielded an absorption maximum of 409 nm.
`COc1ccc(-c2cc(-c3ccccc3)nn2C)cc1` had an absorption maximum (in ClCCl) of 257 nm.
For `CC(=O)Nc1ccc(C2=C/C(=C\c3ccc(C#N)cc3)C(=O)N2CC(C)C)cc1`, the absorption maximum (in C1COCCO1) was 450 nm.
The compound `COC(=O)c1c(-c2cc3ccccc3oc2=O)nn(-c2cccc(Cl)c2)c1C(=O)OC` yielded an absorption maximum (in ClCCl) of 273 nm.
